The source of these data is ChEMBL document CHEMBL3217506, “Amidines bearing benzofuroxan or benzimidazole 1,3-dioxide core scaffolds as Trypanosoma cruzi-inhibitors: structural basis for their interactions with cruzipain” (Medchemcomm, 2012).

The structures appear in SMILES notation.

What is called inhibition is the change of the read-out against control, counted positive when it falls.

The subject of one data set is Trypanosoma cruzi. As to the kind of experiment: Antitrypanosomal activity against epimastigote stage of Trypanosoma cruzi Tulahuen 2 after 5 days relative to untreated control. The data set is classed as functional. The conditions noted are these: Tulahuen 2, 120 h, read-out: ID50 (the source's name).
Data set [1] addresses Cruzipain (Trypanosoma cruzi) (UniProt P25779). Kind of data set: Inhibition of Trypanosoma cruzi cruzipain using Z-Phe-Arg-AMC as substrate at pH 7.4 after 10 mins by spectrofluorimetry relative to untreated control.
Data set [2] shares this target. As to the kind of experiment: Inhibition of Trypanosoma cruzi cruzipain using Z-Phe-Arg-AMC as substrate at 100 uM at pH 5.3 after 10 mins by spectrofluorimetry relative to untreated control.
A short description of data set [3]: Cytotoxicity against human RBC assessed as hemolytic activity after 24 hrs by spectrophotometry. The data set is classed as cell-based, Erythrocyte. The conditions noted are these: human red blood cells (RBC), read-out: ID50.
A short description of data set [4]: Selectivity index, ratio of ID50 for human RBC to ID50 for epimastigote stage of Trypanosoma cruzi Tulahuen 2.
The target of data set [5] is Cruzipain (Trypanosoma cruzi) (UniProt P25779). As to the kind of experiment: Inhibition of Trypanosoma cruzi cruzipain using Z-Phe-Arg-AMC as substrate at 100 uM at pH 7.4 after 10 mins by spectrofluorimetry relative to untreated control.
Sequence of Cruzipain (Trypanosoma cruzi) (P25779 123-467 limits assumed): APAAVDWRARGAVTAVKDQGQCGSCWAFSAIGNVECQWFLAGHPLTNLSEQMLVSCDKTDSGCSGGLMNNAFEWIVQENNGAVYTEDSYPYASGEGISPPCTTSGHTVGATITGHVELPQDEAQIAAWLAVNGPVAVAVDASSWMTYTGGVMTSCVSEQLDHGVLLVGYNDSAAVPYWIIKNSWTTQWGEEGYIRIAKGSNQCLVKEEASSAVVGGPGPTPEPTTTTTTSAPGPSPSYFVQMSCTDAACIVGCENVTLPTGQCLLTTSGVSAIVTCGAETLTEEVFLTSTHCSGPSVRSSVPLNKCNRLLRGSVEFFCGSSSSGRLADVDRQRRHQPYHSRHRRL
For data set [6] the target is unchanged. As to the kind of experiment: Inhibition of Trypanosoma cruzi cruzipain using Z-Phe-Arg-AMC as substrate at 100 uM at pH 5.3 after 10 mins by spectrofluorimetry in presence of Triton X-100 relative to untreated control.

As for `N=C(N)N/N=C/c1ccc(OCc2ccc3no[n+]([O-])c3c2)cc1`, the IC50 in the data set with Trypanosoma cruzi was greater than 25 µM. In addition, the ID50 in data set [1] came to 32 µM.
Take `c1ccc(C/N=C(/Nc2ccccc2)N2CCNCC2)cc1`: in data set [2], the inhibition came to 5.4%.
With `[O-][n+]1onc2ccc(CN3CCN(/C(=N/c4ccccc4)NCCc4ccccc4)CC3)cc21`, the IC50 in the data set with Trypanosoma cruzi is 1.2 µM. Further, in data set [3], the HC50 at 24 h is 37 µM. The results for the inhibition in data set [2] and in data set [5] were 34% and 25%, respectively. Also, in data set [4], the Selectivity Index came out at 31. Besides, the ID50 in data set [1] is greater than 100 µM.
In data set [2], `c1ccc(N/C(=N/Cc2ccco2)N2CCNCC2)cc1` yielded an inhibition of 10%.
In the case of `C[C@@H]1[C@H](O)[C@@H](C)/C=C/C=C/C=C/C=C/C=C/C=C/C=C/[C@H](O[C@@H]2O[C@H](C)[C@@H](O)[C@H](N)[C@@H]2O)C[C@@H]2O[C@](O)(C[C@@H](O)C[C@@H](O)[C@H](O)CC[C@@H](O)C[C@@H](O)CC(=O)O[C@H]1C)C[C@H](O)[C@H]2C(=O)O`, the Selectivity Index in data set [4] is 10.
As for `CC1CS(=O)(=O)CCN1/N=C/c1ccc([N+](=O)[O-])o1` (stereo unspecified) [NIFURTIMOX], the IC50 in the data set with Trypanosoma cruzi came out at 7.7 µM. Besides, the HC50 at 24 h in data set [3] is greater than 100 µM. In addition, in data set [4], the Selectivity Index was greater than 13.
In the case of `O=C(Cn1ccnc1[N+](=O)[O-])NCc1ccccc1` [BENZNIDAZOLE], the IC50 with Trypanosoma cruzi is 7.4 µM.
As to `c1ccc(/N=C(/Nc2ccccc2)N2CCNCC2)cc1`, the inhibition in data set [2] was 6.3%.
As to `[O-][n+]1onc2ccc(CN3CCN(/C(=N/c4ccccc4)NCc4ccccc4)CC3)cc21`, the HC50 at 24 h in data set [3] was determined as 83 µM. Further, the inhibition in data set [2] turned out to be 11%; in data set [5], 29%.
`[O-][n+]1onc2ccc(CN3CCN(/C(=N/c4ccccc4)NCc4ccco4)CC3)cc21`: the IC50 with Trypanosoma cruzi came out at 15 µM. Besides, in data set [3], the HC50 at 24 h was greater than 200 µM. The results for the inhibition in data set [2], in data set [6] and in data set [5] were 44%, 45% and 0.3%, respectively. In addition, the Selectivity Index in data set [4] is greater than 13. The same molecule had an ID50 in data set [1] of 100 µM.
Turning to `CC1(C)[N+]([O-])=c2ccc(CN3CCN(/C(=N/c4ccccc4)NCc4ccccc4)CC3)cc2=[N+]1[O-]`, in data set [3], the HC50 at 24 h is greater than 36 µM. Also, the inhibition in data set [5] amounted to 34%.
Consider `CC1(C)[N+]([O-])=c2ccc(CN3CCN(/C(=N/c4ccccc4)NCCc4ccccc4)CC3)cc2=[N+]1[O-]`, for which the IC50 with Trypanosoma cruzi was found to be 1 µM. Besides, the HC50 at 24 h in data set [3] is greater than 50 µM. The Selectivity Index in data set [4] is greater than 50. Besides, in data set [5], the inhibition came to 30%.
As to `CC/C(=N\N=C(\N)S)c1cccc(Br)c1`, in data set [1], the ID50 came to 0.1 µM.
`c1ccc(CC/N=C(/Nc2ccccc2)N2CCNCC2)cc1` returned an inhibition in data set [2] of 3.2%.
On to `CC1(C)[N+]([O-])=c2ccc(CN3CCN(/C(=N/c4ccccc4)NCc4ccco4)CC3)cc2=[N+]1[O-]`, for which, in data set [3], the HC50 at 24 h is greater than 200 µM. Further, the inhibition in data set [5] turned out to be 15%.
As to `[O-][n+]1onc2ccc(CN3CCN(/C(=N/c4ccccc4)Nc4ccccc4)CC3)cc21`, in the data set on Trypanosoma cruzi, the IC50 came out at 5.8 µM. Also, the HC50 at 24 h in data set [3] was 105 µM. In addition, the inhibition in data set [2] was found to be 47%; in data set [5], 12%. Further, the Selectivity Index in data set [4] amounted to 18. In addition, in data set [1], the ID50 was determined as 100 µM.
As to `N=C(N/N=C/c1ccc(O)cc1)SCc1ccc2no[n+]([O-])c2c1`, in the data set on Trypanosoma cruzi, the IC50 was determined as 6.8 µM. The same molecule gave an ID50 in data set [1] of 64.5 µM.
Taken in the same sequence, the figures for `O=S(=O)(/C=C/c1ccc2no[n+]([O-])c2c1)c1ccccc1` were 1.6 µM and greater than 50 µM.
